Measured values taken from patent US9670226B2, “Sesquiterpenoids” (National Institute of Biological Sciences, Beijing, priority 2014, dated 2017).

What was measured:
[1] = tested on: cervical cancer HeLa cells; experiment: Cancer cell survival; assay type: cell-based, human
[2] = tested on: NIK-mediated production of p52 (IKKα activity); experiment: NIK-mediated non-canonical NF-κB activation (processing of p100 to p52); assay type: cell-based; conditions: ectopic expression of NIK
From the text: Since phosphorylation of p100 by IKKα is critical for NIK-mediated activation of the non-canonical NF-κB, we further investigated the effect of 223 on non-canonical NF-κB activation.

phosphorylation of IκBα = experiment: LPS induced NF-κB activation: IκBα phosphorylation in RAW264.7 cells (western blot); assay type: cell-based, mouse
TAK1 = TAK1 (Homo sapiens, UniProt O43318); experiment: Association with other NF-κB pathway proteins; assay type: binding
Sequence of TAK1 (O43318 whole entry): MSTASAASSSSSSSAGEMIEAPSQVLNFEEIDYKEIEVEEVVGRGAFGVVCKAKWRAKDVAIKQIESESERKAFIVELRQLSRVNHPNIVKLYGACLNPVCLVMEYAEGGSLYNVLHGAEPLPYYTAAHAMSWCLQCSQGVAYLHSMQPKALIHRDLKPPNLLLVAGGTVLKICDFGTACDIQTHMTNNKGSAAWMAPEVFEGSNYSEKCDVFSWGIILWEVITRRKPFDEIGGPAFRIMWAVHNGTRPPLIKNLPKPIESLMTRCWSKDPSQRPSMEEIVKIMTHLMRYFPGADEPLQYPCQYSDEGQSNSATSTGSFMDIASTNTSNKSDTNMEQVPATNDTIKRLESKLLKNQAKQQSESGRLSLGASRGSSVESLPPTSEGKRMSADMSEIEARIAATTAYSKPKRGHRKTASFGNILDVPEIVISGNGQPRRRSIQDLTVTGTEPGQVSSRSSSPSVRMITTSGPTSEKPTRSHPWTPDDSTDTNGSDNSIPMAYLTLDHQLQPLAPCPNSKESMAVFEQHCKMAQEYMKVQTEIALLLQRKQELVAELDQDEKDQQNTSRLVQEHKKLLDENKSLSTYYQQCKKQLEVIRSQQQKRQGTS

IKKγ/NEMO = IKKγ/NEMO (Homo sapiens, UniProt Q9Y6K9); experiment: Association with other NF-κB pathway proteins; assay type: binding
Sequence of IKKγ/NEMO (Q9Y6K9 whole entry): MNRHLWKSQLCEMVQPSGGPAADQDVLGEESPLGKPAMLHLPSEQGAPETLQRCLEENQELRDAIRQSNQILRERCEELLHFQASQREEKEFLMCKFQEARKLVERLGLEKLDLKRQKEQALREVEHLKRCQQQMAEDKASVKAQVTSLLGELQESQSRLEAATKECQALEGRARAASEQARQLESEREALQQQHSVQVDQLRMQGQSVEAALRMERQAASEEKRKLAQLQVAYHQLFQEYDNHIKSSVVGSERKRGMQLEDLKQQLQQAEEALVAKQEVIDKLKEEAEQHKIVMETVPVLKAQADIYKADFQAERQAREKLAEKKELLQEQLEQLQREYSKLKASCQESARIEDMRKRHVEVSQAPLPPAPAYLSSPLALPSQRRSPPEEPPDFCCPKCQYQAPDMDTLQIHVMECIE

recombinant Flag-IKKβ = target: T1, recombinant Flag-IKKβ (Homo sapiens, UniProt O14920); experiment: Binding to purified recombinant protein (SDS-PAGE, streptavidin blot); conditions: excess unlabeled compound
T1 construct: made in house; host or cells: 293T cells (transient transfection, anti-Flag purification)
Procedure: To determine whether 223 directly binds to IKKα and IKKβ, we generated recombinant IKKα and IKKβ proteins for further analysis. 293T cells were transfected with Flag-IKKα or Flag-IKKβ plasmid, and the recombinant Flag-IKKα or Flag-IKKβ was captured by anti-Flag agarose beads and was then eluted off the beads using Flag peptide. The purified Flag-IKKα or Flag-IKKβ was incubated with DMSO or increasing concentrations of Probe, and then the mixtures were resolved by SDS-PAGE, followed by immunoblotting with streptavidin or anti-Flag antibody.

[3] = tested on: peptides 1A, 2A, 1S and 2S (cysteine 46 replaced by alanine or serine); experiment: Peptide binding by MALDI-TOF; design: species or system human
[4] = tested on: BGC-823 human gastric adenocarcinoma xenograft; experiment: BGC-823 xenograft in nude mice; assay type: in vivo; conditions: 223 25 mg/kg, qdx8
Procedure: Next we further examined anti-tumor effect of 223 in vivo. Nude mice bearing a BGC-823 human gastric adenocarcinoma xenograft were treated with vehicle or 223 (25 mg/kg, qdx8) or 10-hydroxycamptothecin (HCPT), a widely used anti-tumor drug (30 mg/kg, q6dx2).

IFR3 phosphorylation = experiment: LPS-induced type I interferon (IFN) responses; assay type: cell-based
WT-IKKβ = WT-IKKβ (Homo sapiens, UniProt O14920); experiment: In vitro kinase assay with Flag-IκBα substrate
[5] = tested on: panel of structurally related kinases
[6] = tested on: gastric adenocarcinoma BCG-823 cells; experiment: Cancer cell survival; assay type: cell-based, human
IKKβ = target: T2, IKKβ (Homo sapiens, UniProt O14920); experiment: IKKβ kinase inhibition; assay type: biochemical; conditions: read-out: IC50 against IKKβ
T2 sequence (O14920 1-756): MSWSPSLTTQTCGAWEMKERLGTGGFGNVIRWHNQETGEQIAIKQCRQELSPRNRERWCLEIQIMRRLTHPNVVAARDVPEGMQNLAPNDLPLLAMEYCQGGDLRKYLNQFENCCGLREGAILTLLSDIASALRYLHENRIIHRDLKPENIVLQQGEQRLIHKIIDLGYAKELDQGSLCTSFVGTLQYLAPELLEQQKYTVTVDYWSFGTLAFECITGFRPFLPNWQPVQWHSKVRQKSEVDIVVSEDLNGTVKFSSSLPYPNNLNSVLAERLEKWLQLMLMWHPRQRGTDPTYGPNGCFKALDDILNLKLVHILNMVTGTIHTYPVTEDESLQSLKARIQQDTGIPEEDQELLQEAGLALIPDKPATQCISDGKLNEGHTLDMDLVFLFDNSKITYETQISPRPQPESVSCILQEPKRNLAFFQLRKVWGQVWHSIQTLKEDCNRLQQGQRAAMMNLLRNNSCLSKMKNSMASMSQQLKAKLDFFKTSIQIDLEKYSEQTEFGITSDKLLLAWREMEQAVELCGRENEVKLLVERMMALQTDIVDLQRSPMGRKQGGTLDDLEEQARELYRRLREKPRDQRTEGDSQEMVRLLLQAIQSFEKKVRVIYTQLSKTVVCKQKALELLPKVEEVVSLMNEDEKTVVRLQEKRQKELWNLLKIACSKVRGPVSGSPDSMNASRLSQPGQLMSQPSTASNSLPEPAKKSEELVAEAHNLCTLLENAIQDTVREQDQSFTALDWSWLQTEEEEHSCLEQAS
From the text: To further explore how (+)-ainsliadimer A inactivates IKKα/β, we conducted the molecular dynamics (MD) simulations using the first crystal structure of IKKβ^29 to sample the conformational states of IKKβ upon 223 binding. […] We next asked whether 223 could directly affect IKKβ kinase activity.

TAB1 = TAB1 (Homo sapiens, UniProt Q15750); experiment: Association with other NF-κB pathway proteins; assay type: binding
Sequence of TAB1 (Q15750 whole entry, species assumed): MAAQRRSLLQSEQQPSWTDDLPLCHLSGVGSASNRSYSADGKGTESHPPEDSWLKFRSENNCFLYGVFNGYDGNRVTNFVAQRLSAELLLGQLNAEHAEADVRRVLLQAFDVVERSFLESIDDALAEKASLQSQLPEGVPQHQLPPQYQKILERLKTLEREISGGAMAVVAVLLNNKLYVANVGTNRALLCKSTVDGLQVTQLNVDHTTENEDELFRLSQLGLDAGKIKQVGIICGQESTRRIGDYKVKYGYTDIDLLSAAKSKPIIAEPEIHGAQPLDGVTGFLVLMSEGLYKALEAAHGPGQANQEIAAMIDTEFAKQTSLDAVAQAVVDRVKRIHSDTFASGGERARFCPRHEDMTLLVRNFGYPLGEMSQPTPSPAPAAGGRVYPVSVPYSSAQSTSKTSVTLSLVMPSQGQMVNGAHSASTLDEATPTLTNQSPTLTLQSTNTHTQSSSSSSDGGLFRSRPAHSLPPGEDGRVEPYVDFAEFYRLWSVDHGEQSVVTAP

[7] = tested on: production of NO in a mouse macrophage cell line RAW264.7; conditions: RAW264.7 stimulated by LPS; previously shown (ref 22); cited from earlier work
glioblastoma T98G cells = experiment: Cancer cell survival; assay type: cell-based, human; conditions: different concentration
C46A-IKKβ = C46A-IKKβ (Homo sapiens, UniProt O14920, C46A); experiment: In vitro kinase assay with Flag-IκBα substrate
Sequence of C46A-IKKβ (O14920 whole entry C46A): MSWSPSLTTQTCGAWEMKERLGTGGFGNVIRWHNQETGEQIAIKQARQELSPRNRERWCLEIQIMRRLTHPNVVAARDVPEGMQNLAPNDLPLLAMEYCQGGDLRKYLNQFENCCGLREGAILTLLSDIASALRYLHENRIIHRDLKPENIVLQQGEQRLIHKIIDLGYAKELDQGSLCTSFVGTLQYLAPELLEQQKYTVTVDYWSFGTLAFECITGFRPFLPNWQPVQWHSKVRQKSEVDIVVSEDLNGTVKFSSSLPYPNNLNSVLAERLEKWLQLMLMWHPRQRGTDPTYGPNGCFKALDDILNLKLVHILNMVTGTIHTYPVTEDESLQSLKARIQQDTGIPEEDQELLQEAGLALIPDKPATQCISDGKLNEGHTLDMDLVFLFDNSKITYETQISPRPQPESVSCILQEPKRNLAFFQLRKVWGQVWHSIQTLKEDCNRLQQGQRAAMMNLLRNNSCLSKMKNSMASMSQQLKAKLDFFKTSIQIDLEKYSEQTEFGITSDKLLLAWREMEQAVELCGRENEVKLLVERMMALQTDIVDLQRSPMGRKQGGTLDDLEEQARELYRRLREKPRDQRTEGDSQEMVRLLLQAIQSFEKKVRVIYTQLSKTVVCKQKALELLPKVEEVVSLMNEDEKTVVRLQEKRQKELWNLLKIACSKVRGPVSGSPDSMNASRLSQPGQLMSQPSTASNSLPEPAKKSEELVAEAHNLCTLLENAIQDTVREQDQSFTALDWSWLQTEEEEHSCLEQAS

[8] = tested on: Phosphorylation of IKKα/β; experiment: TRAF6-induced IKKα/β phosphorylation in S100 cell lysates from 293T cells; assay type: biochemical; conditions: S100 cell lysates from 293T cells with recombinant TRAF6
Procedure: TNF receptor-associated factors (TRAFs) are important intermediates in NF-κB signaling pathway. For example, TRAF2 and TRAF5 regulate TNF-α receptor triggered IKK activation, whereas TRAF6 is required for IL-1 induced IKK activation^2. The latter pathway can be reconstituted in cell-free extracts by adding recombinant TRAF6 protein. Phosphorylation of IKKα/β was detected in S100 cell lysates from 293T cells when incubated with recombinant TRAF6.

[9] = tested on: IKKβ, other eight cysteine-to-alanine mutants; experiment: Binding to IKKβ cysteine mutants
From the text: In order to evaluate which of them is critical for the binding of 223, we individually mutated these nine cysteine residues of IKKβ into alanines.

IKKα Cys46 into serine = target: T3, IKKα Cys46 into serine (Homo sapiens, UniProt O15111, C46S); experiment: Binding to Cys46-to-serine mutant
T3 construct: Flag; made in house
T3 sequence (O15111 whole entry C46S): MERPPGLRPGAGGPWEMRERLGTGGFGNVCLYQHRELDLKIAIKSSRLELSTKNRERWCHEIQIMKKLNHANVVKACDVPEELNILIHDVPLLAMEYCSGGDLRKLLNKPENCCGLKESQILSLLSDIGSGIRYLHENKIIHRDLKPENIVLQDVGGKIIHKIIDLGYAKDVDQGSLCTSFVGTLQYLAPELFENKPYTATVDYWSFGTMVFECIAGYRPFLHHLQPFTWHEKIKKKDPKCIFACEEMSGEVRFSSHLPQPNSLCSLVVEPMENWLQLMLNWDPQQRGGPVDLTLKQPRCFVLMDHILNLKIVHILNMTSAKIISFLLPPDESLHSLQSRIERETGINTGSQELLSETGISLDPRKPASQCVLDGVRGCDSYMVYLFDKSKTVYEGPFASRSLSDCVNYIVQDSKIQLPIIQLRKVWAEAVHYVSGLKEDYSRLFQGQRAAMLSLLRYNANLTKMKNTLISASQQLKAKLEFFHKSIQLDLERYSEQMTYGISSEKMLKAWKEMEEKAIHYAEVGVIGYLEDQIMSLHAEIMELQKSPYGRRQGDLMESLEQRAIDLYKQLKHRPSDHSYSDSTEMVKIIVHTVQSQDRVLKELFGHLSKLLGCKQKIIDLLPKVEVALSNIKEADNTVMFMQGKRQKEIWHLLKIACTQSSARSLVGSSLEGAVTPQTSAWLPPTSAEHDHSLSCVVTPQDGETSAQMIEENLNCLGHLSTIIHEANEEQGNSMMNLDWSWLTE

C=C1C(=O)O[C@@H]2[C@@H]3[C@@H](C[C@@]4(O)[C@]3(O)CC[C@]43C(=O)C[C@H]4C(=C)CC[C@H]5C(=C)C(=O)O[C@@H]5[C@H]43)C(=C)CC[C@@H]12 [Compound 223, (+)-Ainsliadimer A]
inhibition of cell survival (cell viability by ATP levels) ([1]; 48 hours): dose response inhibition | cell death ([1]; different concentration): Dramatic cell death | NIK-mediated production of p52 [2]: prevented | inhibitory effect against LPS-induced NF-κB activation in comparison with BMS-345541 (phosphorylation of IκBα; RAW264.7 cells): much stronger inhibitory effect | concentration that effectively blocks phosphorylation of IκBα (phosphorylation of IκBα; RAW264.7 cells, pre-treatment, LPS for 10 or 20 minutes): about 8 μM | phosphorylation of IκBα (phosphorylation of IκBα; Raw 264.7 cells pre-incubated with 4 μM for 2 h, 20 ng/ml LPS, 20 minutes, western blot): effectively blocked | association with TAK1 (TAK1): no association | association with IKKγ/NEMO (IKKγ/NEMO): no association | competition of Probe binding to recombinant IKKβ (recombinant Flag-IKKβ): competed off | binding to peptides 1A, 2A, 1S and 2S [3]: lost the ability to bind | anti-tumor effect relative to HCPT (30 mg/kg, q6dx2) [4]: comparable | side effects and body weight during administration ([4]; HCPT 30 mg/kg, q6dx2): did not display any discernible side effects or significant changes in body weight | mice with significant tumor remission ([4]; after 12 days): eight of eight | xenograft tumor response ([4]; after 12 days, compared to vehicle): Significant xenograft tumor remission | effect on LPS-induced type I interferon (IFN) responses (IFR3 phosphorylation) (IFR3 phosphorylation): no effect | WT-IKKβ-induced phosphorylation of IκBα (WT-IKKβ): significantly suppressed | selectivity against a panel of structurally related kinases [5]: excellent selectivity | inhibition of cell survival (cell viability by ATP levels) ([6]; BCG-823, 48 hours): dose response inhibition | cell death ([6]; BCG-823, different concentration): Dramatic cell death | IC50 (IKKβ): 76 nM | association with TAB1 (TAB1): no association | inhibitory activity against the production of NO [7]: inhibitory activity | cell death (glioblastoma T98G cells): Dramatic cell death | phosphorylation of IκBα triggered by C46A-IKKβ (C46A-IKKβ): resistant | TRAF6-induced phosphorylation of IKKα/β [8]: completely abolished | binding of other eight IKKβ cysteine mutants [9]: retained high affinity binding | interaction with IKKα Cys46 to serine mutant (IKKα Cys46 into serine): abolished
